In paper PMC9030254, “Target Hopping from Protein Kinases to PXR: Identification of Small-Molecule Protein Kinase Inhibitors as Selective Modulators of Pregnane X Receptor from TüKIC Library” (Cells, 2022):

Columns and labels:
Test in all cases: Kinase profiling
Type in all cases: biochemical
[1] = molecular target: T1, EPHA3 (Homo sapiens, UniProt P29320)
T1 construct: purchased ProQinase (Freiburg, Germany)
T1 sequence (P29320 21-983): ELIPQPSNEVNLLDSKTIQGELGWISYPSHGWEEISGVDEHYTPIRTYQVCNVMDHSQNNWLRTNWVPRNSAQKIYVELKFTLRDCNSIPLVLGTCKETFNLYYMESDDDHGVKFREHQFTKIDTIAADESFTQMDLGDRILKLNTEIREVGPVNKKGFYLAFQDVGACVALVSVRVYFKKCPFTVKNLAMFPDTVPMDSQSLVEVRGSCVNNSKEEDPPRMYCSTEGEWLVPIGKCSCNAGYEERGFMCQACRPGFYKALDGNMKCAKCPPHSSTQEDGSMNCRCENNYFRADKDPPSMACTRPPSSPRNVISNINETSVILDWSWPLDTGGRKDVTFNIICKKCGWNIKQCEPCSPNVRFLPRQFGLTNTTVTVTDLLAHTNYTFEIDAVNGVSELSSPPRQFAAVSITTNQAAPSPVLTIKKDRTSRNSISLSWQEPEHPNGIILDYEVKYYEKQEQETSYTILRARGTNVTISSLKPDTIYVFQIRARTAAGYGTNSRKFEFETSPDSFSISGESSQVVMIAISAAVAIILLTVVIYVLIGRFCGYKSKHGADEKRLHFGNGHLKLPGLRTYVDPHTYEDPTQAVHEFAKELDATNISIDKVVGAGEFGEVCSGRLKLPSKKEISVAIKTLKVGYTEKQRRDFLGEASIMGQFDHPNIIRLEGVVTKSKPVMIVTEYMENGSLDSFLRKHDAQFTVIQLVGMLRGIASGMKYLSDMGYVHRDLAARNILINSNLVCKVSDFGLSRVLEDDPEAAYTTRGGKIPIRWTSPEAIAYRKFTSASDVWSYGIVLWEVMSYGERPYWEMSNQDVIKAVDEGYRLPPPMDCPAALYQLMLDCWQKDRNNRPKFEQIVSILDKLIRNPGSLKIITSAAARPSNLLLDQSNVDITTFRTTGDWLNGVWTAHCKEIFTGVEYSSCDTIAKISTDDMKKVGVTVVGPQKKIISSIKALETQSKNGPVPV
Protocol: (§1) The analysis was performed by ProQinase (Freiburg, Germany).

[2] = molecular target: T2, AuroraB (Homo sapiens, UniProt Q96GD4)
T2 construct: purchased ProQinase (Freiburg, Germany)
Protocol: as §1

[3] = molecular target: T3, BUB1B (Homo sapiens, UniProt O60566)
T3 construct: purchased ProQinase (Freiburg, Germany)
Protocol: as §1

[4] = molecular target: T4, FGFR4 (Homo sapiens, UniProt P22455)
T4 construct: purchased ProQinase (Freiburg, Germany)
Protocol: as §1

[5] = molecular target: T5, PIM2 (Homo sapiens, UniProt Q9P1W9)
T5 construct: purchased ProQinase (Freiburg, Germany)
Protocol: as §1

[6] = molecular target: T6, CHK2 (Homo sapiens, UniProt O96017)
T6 construct: purchased ProQinase (Freiburg, Germany)
Protocol: as §1

[7] = molecular target: T7, AKT1 (Homo sapiens, UniProt P31749)
T7 construct: purchased ProQinase (Freiburg, Germany)
Protocol: as §1

[8] = molecular target: T8, LCK (Homo sapiens, UniProt P06239)
T8 construct: purchased ProQinase (Freiburg, Germany)
Protocol: as §1

[9] = molecular target: T9, MAPKAPK5 (Homo sapiens, UniProt Q8IW41)
T9 construct: purchased ProQinase (Freiburg, Germany)
T9 sequence (Q8IW41 1-473): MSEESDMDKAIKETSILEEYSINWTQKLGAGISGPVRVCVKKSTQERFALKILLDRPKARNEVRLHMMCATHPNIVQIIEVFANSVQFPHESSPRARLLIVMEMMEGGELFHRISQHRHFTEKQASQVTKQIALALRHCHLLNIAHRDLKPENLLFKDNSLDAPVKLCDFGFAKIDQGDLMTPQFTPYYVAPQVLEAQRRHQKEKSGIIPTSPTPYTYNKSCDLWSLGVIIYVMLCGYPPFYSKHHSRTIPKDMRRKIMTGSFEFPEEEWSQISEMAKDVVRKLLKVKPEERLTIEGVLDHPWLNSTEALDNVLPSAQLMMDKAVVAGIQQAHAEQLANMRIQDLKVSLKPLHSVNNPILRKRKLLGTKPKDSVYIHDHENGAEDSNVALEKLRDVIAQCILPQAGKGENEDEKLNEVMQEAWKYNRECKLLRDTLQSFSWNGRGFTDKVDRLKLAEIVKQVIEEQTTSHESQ
Protocol: as §1

[10] = molecular target: T10, CDK3/CycC (Homo sapiens, UniProt Q00526)
T10 construct: purchased ProQinase (Freiburg, Germany)
Protocol: as §1

[11] = molecular target: T11, RPS6KA3 (Homo sapiens, UniProt P51812)
T11 construct: purchased ProQinase (Freiburg, Germany)
Protocol: as §1

[12] = molecular target: T12, BRAF (Homo sapiens, UniProt P15056)
T12 construct: purchased ProQinase (Freiburg, Germany)
Protocol: as §1

[13] = molecular target: T13, PKMYT1 (Homo sapiens, UniProt Q99640)
T13 construct: purchased ProQinase (Freiburg, Germany)
T13 sequence (Q99640 1-499): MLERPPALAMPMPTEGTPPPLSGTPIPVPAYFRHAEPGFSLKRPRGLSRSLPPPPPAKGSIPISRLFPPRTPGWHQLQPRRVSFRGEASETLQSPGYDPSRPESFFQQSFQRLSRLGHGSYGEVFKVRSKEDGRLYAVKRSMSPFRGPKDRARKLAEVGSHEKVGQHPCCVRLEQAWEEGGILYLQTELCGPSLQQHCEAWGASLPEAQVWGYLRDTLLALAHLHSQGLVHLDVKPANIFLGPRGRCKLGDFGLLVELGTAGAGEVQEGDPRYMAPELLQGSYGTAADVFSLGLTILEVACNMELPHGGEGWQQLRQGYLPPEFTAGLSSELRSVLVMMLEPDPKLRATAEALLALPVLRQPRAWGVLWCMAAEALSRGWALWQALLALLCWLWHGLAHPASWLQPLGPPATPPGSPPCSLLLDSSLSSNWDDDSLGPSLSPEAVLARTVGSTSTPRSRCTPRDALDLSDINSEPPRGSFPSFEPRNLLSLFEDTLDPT
Protocol: as §1

T4 sequence (P22455 22-802): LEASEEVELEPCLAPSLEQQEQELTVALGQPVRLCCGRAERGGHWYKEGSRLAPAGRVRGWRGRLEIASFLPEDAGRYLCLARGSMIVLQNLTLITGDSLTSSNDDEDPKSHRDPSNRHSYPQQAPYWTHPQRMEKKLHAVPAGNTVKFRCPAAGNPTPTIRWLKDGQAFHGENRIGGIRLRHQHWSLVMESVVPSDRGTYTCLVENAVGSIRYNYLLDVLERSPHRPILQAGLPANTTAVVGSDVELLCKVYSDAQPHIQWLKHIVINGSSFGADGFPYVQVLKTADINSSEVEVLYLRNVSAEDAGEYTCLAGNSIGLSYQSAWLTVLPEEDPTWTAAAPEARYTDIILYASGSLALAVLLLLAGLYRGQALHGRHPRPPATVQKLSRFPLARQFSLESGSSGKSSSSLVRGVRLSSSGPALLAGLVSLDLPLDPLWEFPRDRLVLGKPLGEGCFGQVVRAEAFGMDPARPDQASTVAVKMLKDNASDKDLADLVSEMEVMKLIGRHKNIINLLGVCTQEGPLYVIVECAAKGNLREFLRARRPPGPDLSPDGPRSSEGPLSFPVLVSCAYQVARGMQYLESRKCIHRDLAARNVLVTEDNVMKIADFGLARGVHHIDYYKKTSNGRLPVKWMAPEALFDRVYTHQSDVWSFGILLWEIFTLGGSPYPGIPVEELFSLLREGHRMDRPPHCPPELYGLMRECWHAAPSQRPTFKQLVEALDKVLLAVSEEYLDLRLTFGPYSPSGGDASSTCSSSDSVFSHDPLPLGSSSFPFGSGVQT
T6 sequence (O96017 whole entry): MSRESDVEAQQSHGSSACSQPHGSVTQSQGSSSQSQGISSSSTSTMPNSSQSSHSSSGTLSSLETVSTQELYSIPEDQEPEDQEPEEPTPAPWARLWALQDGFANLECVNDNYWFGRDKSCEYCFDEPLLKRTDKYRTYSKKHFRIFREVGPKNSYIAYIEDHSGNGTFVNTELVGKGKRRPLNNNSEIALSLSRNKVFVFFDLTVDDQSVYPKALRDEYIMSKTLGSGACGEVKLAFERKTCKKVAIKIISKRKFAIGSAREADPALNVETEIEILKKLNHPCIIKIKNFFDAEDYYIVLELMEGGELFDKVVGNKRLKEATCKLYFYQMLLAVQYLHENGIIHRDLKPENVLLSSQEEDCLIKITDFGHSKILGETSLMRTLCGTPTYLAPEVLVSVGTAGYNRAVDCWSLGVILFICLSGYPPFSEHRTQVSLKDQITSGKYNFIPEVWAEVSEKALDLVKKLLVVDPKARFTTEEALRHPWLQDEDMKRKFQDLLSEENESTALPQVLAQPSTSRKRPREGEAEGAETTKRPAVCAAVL
T11 sequence (P51812 whole entry): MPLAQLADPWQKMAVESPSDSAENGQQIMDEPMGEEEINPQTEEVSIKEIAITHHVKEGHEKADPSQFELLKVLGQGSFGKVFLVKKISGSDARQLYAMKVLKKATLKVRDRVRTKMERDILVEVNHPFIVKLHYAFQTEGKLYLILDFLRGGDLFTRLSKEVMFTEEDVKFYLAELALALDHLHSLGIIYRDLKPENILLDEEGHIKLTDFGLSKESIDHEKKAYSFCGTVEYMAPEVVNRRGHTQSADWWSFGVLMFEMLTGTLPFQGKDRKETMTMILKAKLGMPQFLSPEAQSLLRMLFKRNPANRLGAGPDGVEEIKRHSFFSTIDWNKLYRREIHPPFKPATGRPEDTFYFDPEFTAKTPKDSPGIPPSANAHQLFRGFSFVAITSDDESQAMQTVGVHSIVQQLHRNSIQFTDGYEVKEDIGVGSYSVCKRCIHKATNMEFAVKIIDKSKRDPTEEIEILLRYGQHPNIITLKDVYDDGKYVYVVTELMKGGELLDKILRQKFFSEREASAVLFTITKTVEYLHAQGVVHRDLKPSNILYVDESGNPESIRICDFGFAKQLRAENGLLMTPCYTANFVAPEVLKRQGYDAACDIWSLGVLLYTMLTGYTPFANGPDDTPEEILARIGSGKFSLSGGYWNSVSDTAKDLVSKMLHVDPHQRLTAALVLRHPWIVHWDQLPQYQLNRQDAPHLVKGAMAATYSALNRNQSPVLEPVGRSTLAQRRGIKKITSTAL
T12 sequence (P15056 whole entry): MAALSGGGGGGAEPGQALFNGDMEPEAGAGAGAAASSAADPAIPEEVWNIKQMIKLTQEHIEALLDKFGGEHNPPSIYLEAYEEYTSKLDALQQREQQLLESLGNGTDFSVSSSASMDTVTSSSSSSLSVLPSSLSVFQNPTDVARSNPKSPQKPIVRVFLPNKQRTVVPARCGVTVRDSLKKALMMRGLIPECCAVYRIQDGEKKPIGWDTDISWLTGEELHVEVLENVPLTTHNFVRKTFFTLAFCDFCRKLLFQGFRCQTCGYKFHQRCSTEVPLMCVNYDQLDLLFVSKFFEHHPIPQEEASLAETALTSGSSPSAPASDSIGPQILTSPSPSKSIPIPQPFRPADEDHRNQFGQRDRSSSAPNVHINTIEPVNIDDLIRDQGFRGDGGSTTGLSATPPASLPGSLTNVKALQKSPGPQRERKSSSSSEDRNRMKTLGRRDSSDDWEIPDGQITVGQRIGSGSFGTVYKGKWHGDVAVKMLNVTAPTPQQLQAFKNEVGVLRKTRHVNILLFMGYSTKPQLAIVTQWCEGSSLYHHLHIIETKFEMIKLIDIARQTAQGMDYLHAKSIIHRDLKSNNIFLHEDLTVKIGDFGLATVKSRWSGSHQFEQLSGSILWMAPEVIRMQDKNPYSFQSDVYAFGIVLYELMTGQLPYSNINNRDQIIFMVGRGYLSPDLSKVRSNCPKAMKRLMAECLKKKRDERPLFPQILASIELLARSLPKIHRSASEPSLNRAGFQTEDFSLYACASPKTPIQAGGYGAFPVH
T3 sequence (O60566 whole entry): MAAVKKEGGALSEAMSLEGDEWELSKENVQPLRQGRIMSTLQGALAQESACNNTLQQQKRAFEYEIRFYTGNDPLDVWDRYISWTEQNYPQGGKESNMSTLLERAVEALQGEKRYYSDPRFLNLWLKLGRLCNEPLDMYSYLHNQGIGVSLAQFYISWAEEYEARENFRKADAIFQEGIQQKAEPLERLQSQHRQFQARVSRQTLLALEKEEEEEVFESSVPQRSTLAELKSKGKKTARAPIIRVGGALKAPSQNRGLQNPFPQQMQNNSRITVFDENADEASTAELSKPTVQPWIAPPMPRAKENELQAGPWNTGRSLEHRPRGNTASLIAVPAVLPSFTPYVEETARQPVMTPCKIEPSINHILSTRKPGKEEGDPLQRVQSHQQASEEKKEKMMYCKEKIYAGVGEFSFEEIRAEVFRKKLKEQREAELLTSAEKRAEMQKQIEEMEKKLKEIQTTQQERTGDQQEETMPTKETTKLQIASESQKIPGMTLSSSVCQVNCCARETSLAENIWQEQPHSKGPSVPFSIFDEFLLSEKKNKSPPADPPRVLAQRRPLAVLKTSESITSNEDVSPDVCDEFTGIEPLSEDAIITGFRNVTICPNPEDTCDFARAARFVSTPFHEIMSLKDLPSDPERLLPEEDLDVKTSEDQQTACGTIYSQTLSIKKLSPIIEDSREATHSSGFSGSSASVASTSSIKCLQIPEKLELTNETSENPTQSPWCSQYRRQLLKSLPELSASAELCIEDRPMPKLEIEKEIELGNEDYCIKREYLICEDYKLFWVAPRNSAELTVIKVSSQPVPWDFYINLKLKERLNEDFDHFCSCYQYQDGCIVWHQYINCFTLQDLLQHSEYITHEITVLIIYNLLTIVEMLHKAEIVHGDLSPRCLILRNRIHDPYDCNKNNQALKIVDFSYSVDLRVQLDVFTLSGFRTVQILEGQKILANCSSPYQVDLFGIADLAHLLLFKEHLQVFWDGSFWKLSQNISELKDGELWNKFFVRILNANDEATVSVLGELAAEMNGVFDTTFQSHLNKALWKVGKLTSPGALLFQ
T2 sequence (Q96GD4 whole entry): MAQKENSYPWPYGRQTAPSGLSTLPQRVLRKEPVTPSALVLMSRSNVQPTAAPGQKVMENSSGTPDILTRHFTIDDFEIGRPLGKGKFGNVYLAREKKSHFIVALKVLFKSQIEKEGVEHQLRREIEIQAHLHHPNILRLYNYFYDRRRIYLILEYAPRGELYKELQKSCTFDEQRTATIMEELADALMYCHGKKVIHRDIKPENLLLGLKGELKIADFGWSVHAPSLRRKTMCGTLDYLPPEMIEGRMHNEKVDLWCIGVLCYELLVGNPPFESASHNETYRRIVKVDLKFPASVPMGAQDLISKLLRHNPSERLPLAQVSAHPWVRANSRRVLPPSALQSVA
T7 sequence (P31749 whole entry): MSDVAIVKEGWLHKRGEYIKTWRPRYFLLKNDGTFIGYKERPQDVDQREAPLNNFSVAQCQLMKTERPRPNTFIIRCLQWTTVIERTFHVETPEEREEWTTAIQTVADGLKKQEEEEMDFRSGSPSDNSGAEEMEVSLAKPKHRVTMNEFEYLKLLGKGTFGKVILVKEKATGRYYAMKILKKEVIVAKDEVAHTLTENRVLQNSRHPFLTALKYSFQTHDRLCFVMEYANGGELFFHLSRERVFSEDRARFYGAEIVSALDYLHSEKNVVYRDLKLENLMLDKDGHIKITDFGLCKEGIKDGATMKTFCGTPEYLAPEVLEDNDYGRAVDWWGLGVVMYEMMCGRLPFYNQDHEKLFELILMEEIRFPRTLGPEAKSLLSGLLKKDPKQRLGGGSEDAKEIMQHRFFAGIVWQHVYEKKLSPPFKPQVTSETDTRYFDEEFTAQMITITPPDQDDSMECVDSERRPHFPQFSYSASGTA
T5 sequence (Q9P1W9 whole entry): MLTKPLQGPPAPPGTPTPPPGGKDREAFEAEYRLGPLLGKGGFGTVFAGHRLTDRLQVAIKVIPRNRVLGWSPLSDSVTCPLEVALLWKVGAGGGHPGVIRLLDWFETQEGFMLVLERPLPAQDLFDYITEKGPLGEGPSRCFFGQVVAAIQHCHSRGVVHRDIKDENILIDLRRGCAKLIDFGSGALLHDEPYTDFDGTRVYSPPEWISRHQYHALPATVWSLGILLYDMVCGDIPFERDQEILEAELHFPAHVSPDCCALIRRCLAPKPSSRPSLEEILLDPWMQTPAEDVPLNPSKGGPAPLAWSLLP

O=C(Cc1ccccc1)Nc1ccc(F)c(Nc2ccc3c(c2)CCCCC3=O)c1 [Compound 100]
Residual activity ([1]; 1.0E-05 M): 86 % of control
Residual activity ([1]; 1.0E-06 M): 96 % of control
Residual activity ([2]; 1.0E-05 M): 90 % of control
Residual activity ([2]; 1.0E-06 M): 101 % of control
Residual activity ([3]; 1.0E-05 M): 96 % of control
Residual activity ([3]; 1.0E-06 M): 108 % of control
Residual activity ([4]; 1.0E-05 M): 67 % of control
Residual activity ([4]; 1.0E-06 M): 96 % of control
Residual activity ([5]; 1.0E-05 M): 92 % of control
Residual activity ([5]; 1.0E-06 M): 109 % of control
Residual activity ([6]; 1.0E-05 M): 72 % of control
Residual activity ([6]; 1.0E-06 M): 92 % of control
Residual activity ([7]; 1.0E-05 M): 88 % of control
Residual activity ([7]; 1.0E-06 M): 99 % of control
Residual activity ([8]; 1.0E-05 M): 66 % of control
Residual activity ([8]; 1.0E-06 M): 107 % of control
Residual activity ([9]; 1.0E-05 M): 89 % of control
Residual activity ([9]; 1.0E-06 M): 127 % of control
Residual activity ([10]; 1.0E-05 M): 89 % of control
Residual activity ([10]; 1.0E-06 M): 97 % of control
Residual activity ([11]; 1.0E-05 M): 80 % of control
Residual activity ([11]; 1.0E-06 M): 97 % of control
inhibition at 10 µM [12]: ≥ 50%
Residual activity ([12]; 1.0E-05 M): 25 % of control
Residual activity ([12]; 1.0E-06 M): 58 % of control
Residual activity ([13]; 1.0E-05 M): 93 % of control
Residual activity ([13]; 1.0E-06 M): 102 % of control

O=C(Nc1ccc(F)c(Nc2ccc3c(c2)CCCCC3=O)c1)c1cccc(F)c1 [Compound 109]
Residual activity ([1]; 1.0E-05 M): 94 % of control
Residual activity ([1]; 1.0E-06 M): 92 % of control
Residual activity ([2]; 1.0E-05 M): 85 % of control
Residual activity ([2]; 1.0E-06 M): 101 % of control
Residual activity ([3]; 1.0E-05 M): 106 % of control
Residual activity ([3]; 1.0E-06 M): 104 % of control
Residual activity ([4]; 1.0E-05 M): 79 % of control
Residual activity ([4]; 1.0E-06 M): 90 % of control
Residual activity ([5]; 1.0E-05 M): 86 % of control
Residual activity ([5]; 1.0E-06 M): 100 % of control
Residual activity ([6]; 1.0E-05 M): 74 % of control
Residual activity ([6]; 1.0E-06 M): 94 % of control
Residual activity ([7]; 1.0E-05 M): 97 % of control
Residual activity ([7]; 1.0E-06 M): 101 % of control
Residual activity ([8]; 1.0E-05 M): 84 % of control
Residual activity ([8]; 1.0E-06 M): 102 % of control
Residual activity ([9]; 1.0E-05 M): 97 % of control
Residual activity ([9]; 1.0E-06 M): 101 % of control
Residual activity ([10]; 1.0E-05 M): 96 % of control
Residual activity ([10]; 1.0E-06 M): 87 % of control
Residual activity ([11]; 1.0E-05 M): 84 % of control
Residual activity ([11]; 1.0E-06 M): 90 % of control
inhibition at 10 µM [12]: ≥ 50%
Residual activity ([12]; 1.0E-05 M): 39 % of control
Residual activity ([12]; 1.0E-06 M): 67 % of control
Residual activity ([13]; 1.0E-05 M): 95 % of control
Residual activity ([13]; 1.0E-06 M): 98 % of control
